Measurements published in ChEMBL document CHEMBL3351819, “Clofazimine analogs with antileishmanial and antiplasmodial activity” (Bioorg Med Chem, 2015).

Key:
[1] = Cytotoxicity against HMEC1 cells after 72 hrs by MTT assay; format: cell-based; settings: Homo sapiens, HMEC-1, 72 h
Leishmania tropica = test: Antileishmanial activity against Leishmania tropica MHOM/IT/2012/ISS3130 promastigotes assessed as inhibition of parasite growth after 72 hrs by MTT assay; format: functional, organism-based; settings: MHOM/IT/2012/ISS3130, 72 h
[2] = Selectivity index, ratio of IC50 for HMEC1 to IC50 for Leishmania tropica MHOM/IT/2012/ISS3130
[3] = Selectivity index, ratio of IC50 for HMEC1 to IC50 for Leishmania infantum MHOM/TN/80/IPT1
Plasmodium falciparum [4] = test: Antiplasmodial activity against chloroquine-resistant Plasmodium falciparum W2 assessed as inhibition of parasite growth after 72 hrs by parasite lactate dehydrogenase assay; format: functional, organism-based; settings: W2, 72 h
Plasmodium falciparum [5] = test: Resistance index, ratio of IC50 for chloroquine-resistant Plasmodium falciparum W2 to IC50 for chloroquine-sensitive Plasmodium falciparum D10; format: functional
Leishmania infantum = test: Antileishmanial activity against Leishmania infantum MHOM/TN/80/IPT1 promastigotes assessed as inhibition of parasite growth after 72 hrs by MTT assay; format: functional, organism-based; settings: MHOM/TN/80/IPT1, 72 h
[6] = Selectivity index, ratio of IC50 for HMEC1 to IC50 for chloroquine-resistant Plasmodium falciparum W2
Plasmodium falciparum [7] = test: Antiplasmodial activity against chloroquine-sensitive Plasmodium falciparum D10 assessed as inhibition of parasite growth after 72 hrs by parasite lactate dehydrogenase assay; format: functional, organism-based; settings: D10, 72 h
[8] = Selectivity index, ratio of IC50 for HMEC1 to IC50 for chloroquine-sensitive Plasmodium falciparum D10
Leishmania braziliensis = test: Antileishmanial activity against Leishmania braziliensis MHOM/IT/2006/ISS2848 promastigotes assessed as inhibition of parasite growth after 72 hrs by MTT assay; format: functional, organism-based; settings: MHOM/IT/2006/ISS2848, 72 h
[9] = Selectivity index, ratio of IC50 for HMEC1 to IC50 for Leishmania braziliensis MHOM/IT/2006/ISS2848

Row | SMILES | IC50 [1] [nM] | IC50 (Leishmania tropica) [nM] | Ratio IC50 [2] | Ratio IC50 [3] | IC50 (Plasmodium falciparum [4]) [nM] | Ratio IC50 (Plasmodium falciparum [5]) | IC50 (Leishmania infantum) [nM] | Ratio IC50 [6] | IC50 (Plasmodium falciparum [7]) [nM] | Ratio IC50 [8] | IC50 (Leishmania braziliensis) [nM] | Ratio IC50 [9]
1 | CN(C)CCC/N=c1/cc2n(-c3ccc(Cl)cc3)c3ccccc3nc-2cc1Nc1cccnc1 | 4660 | 770 | 6.1 | 11.4 | 280 | 0.7 | 410 | 16.6 | 400 | 11.7 |  | 
2 | Cl.c1ccc(Nc2cc3nc4ccccc4n(-c4ccccc4)c-3c/c2=N/CCC23CCCN2CCC3)cc1 | 1900 | 1100 | 1.7 | 2.1 | 290 | 0.9 | 910 | 6.5 | 340 | 5.5 |  | 
3 | Cc1ccc(Nc2cc3nc4ccccc4n(-c4ccc(C)cc4)c-3c/c2=N/C[C@@H]2CCCN3CCCC[C@H]23)cc1.Cl | 1570 | 470 | 3.3 | 3.4 | 400 | 1.9 | 460 | 3.9 | 210 | 7.5 |  | 
4 | c1ccc(Nc2cc3nc4ccccc4n(-c4ccccc4)c-3c/c2=N/CCC[C@@H]2CCCN3CCCC[C@H]23)cc1 | 4500 | 2700 | 1.7 | 2.8 | 63 | 0.5 | 1590 | 71.4 | 120 | 36.6 |  | 
5 | c1ccc(Nc2cc3nc4ccccc4n(-c4ccccc4)c-3c/c2=N/CC[C@@H]2CCCN3CCCC[C@H]23)cc1 |  |  |  |  | 270 | 1.5 |  |  | 180 |  |  | 
6 | Cl.Fc1ccc(Nc2cc3nc4ccccc4n(-c4ccc(F)cc4)c-3c/c2=N/CCCCC23CCCCN2CCCC3)cc1 | 1960 | 840 | 2.3 | 4.1 | 390 | 1.6 | 480 | 5 | 240 | 8.2 |  | 
7 | Cl.c1ccc(Nc2cc3nc4ccccc4n(-c4ccccc4)c-3c/c2=N/CC23CCCN2CCC3)cc1 | 2650 | 9850 | 0.3 |  | 440 | 0.7 |  | 6 | 640 | 4.1 |  | 
8 | Cl.c1ccc(Nc2cc3nc4ccccc4n(-c4ccccc4)c-3c/c2=N/CCCCC23CCCCN2CCCC3)cc1 | 1230 | 220 | 5.6 | 3.3 | 270 | 1.3 | 370 | 4.5 | 210 | 5.9 | 170 | 7.2
9 | Cl.Clc1ccc(Nc2cc3nc4ccccc4n(-c4ccc(Cl)cc4)c-3c/c2=N/CC23CCCN2CCC3)cc1 | 3570 | 7440 | 0.5 |  | 750 | 1.2 |  | 4.8 | 620 | 5.8 |  | 
10 | Cl.c1ccc(Nc2cc3nc4ccccc4n(-c4ccccc4)c-3c/c2=N/CCCCCCC23CCCCN2CCCC3)cc1 | 1240 | 120 | 10.3 | 5.4 | 210 | 1.2 | 230 | 5.9 | 170 | 7.3 | 140 | 8.9
11 | C[N+]12CCCCC1(CCCC/N=c1/cc3n(-c4ccccc4)c4ccccc4nc-3cc1Nc1ccccc1)CCCC2.[I-] (stereo not drawn) | 11100 | 1090 | 10.1 | 4.1 | 270 | 1.4 | 2670 | 41 | 190 | 58.2 |  | 
12 | Clc1ccc(Nc2cc3nc4ccccc4n(-c4ccc(Cl)cc4)c-3c/c2=N/C[C@@H]2CCCN3CCCC[C@H]23)cc1 |  |  |  |  | 960 | 2.1 |  |  | 450 |  |  | 
13 | COc1ccc(Nc2cc3nc4ccccc4n(-c4ccccc4)c-3c/c2=N/CCCCC23CCCCN2CCCC3)cn1.Cl | 6320 | 2320 | 2.7 | 1.4 | 350 | 0.4 | 4440 | 18.1 | 810 | 7.8 |  | 
14 | Cl.c1ccc(Nc2cc3nc4ccccc4n(-c4ccccc4)c-3c/c2=N/CCN2CCCC2)cc1 | 1390 | 12300 | 0.1 |  | 110 | 0.6 |  | 12.6 | 180 | 7.7 |  | 
15 | CC(C)/N=c1\cc2n(-c3ccc(Cl)cc3)c3ccccc3nc-2cc1Nc1ccc(Cl)cc1 [CLOFAZIMINE] | 18600 | 2960 | 6.3 | 4.2 | 7020 | 1.5 | 4480 | 2.6 | 4820 | 3.9 |  | 
16 | Cl.Fc1ccc(Nc2cc3nc4ccccc4n(-c4ccc(F)c(Cl)c4)c-3c/c2=N/CCCCCCC23CCCCN2CCCC3)cc1Cl | 1350 | 240 | 5.5 | 3.9 | 570 | 1.9 | 350 | 2.4 | 310 | 4.4 |  | 
17 | C[C@@H]1[C@H](O)[C@@H](C)/C=C/C=C/C=C/C=C/C=C/C=C/C=C/[C@H](O[C@@H]2O[C@H](C)[C@@H](O)[C@H](N)[C@@H]2O)C[C@@H]2O[C@](O)(C[C@@H](O)C[C@@H](O)[C@H](O)CC[C@@H](O)C[C@@H](O)CC(=O)O[C@H]1C)C[C@H](O)[C@H]2C(=O)O [AMPHOTERICIN B] | 25700 | 90 | 286 | 321 |  |  | 80 |  |  |  | 90 | 286
18 | CCN(CC)CCCC(C)Nc1ccnc2cc(Cl)ccc12 (stereo not drawn) [CHLOROQUINE] | > 38000 |  |  |  |  |  |  |  |  |  |  | 
19 | c1ccc(Nc2cc3nc4ccccc4n(-c4ccccc4)c-3c/c2=N/C[C@@H]2CCCN3CCCC[C@H]23)cc1 |  |  |  |  | 810 | 2.2 |  |  | 370 |  |  | 
20 | Cl.Fc1ccc(Nc2cc3nc4ccccc4n(-c4ccc(F)cc4)c-3c/c2=N/CCCCCCC23CCCCN2CCCC3)cc1 | 1870 | 330 | 5.5 | 4.3 | 340 | 1.2 | 430 | 5.5 | 280 | 6.7 |  | 
21 | Cl.c1ccc(-n2c3c/c(=N/CCCCC45CCCCN4CCCC5)c(Nc4cccnc4)cc-3nc3ccccc32)cc1 | 3890 | 2010 | 1.9 | 0.6 | 210 | 0.8 | 6020 | 18.5 | 280 | 13.9 |  | 
22 | Cl.Clc1ccc(-n2c3c/c(=N/CCCCC45CCCCN4CCCC5)c(Nc4cccnc4)cc-3nc3ccccc32)cc1 | 2330 | 340 | 6.9 | 6.9 | 180 | 0.8 | 340 | 12.9 | 220 | 10.6 |  | 
23 | Cl.Clc1ccc(Nc2cc3nc4ccccc4n(-c4ccc(Cl)cc4)c-3c/c2=N/CCC23CCCN2CCC3)cc1 | 980 | 540 | 1.8 | 3.3 | 450 | 2.4 | 300 | 2.2 | 190 | 5.2 |  | 
24 | c1ccc(Nc2cc3nc4ccccc4n(-c4ccccc4)c-3c/c2=N/C[C@H]2CCCN3CCCC[C@H]23)cc1 |  |  |  |  | 240 | 1.7 |  |  | 140 |  |  | 
